The NIST ThermoML archive (doi:10.1016/j.jct.2007.11.006)
± gives the expanded uncertainty stated by the source.

Experiments:
[1] = Crystal
[2] = Molar enthalpy of transition or fusion; settings: Crystal; DSC
[3] = molar enthalpy of vaporization or sublimation; settings: 298.15 K; Crystal; Drop sublimation at initial T = 411 K and adjusted to 298.15 K

COc1cc(O)cc(OC)c1OC [3,4,5-trimethoxyphenol]
mass density ([1]; 298.1 K, 101.33 kPa, mass of pellet and dimensions): 1080 ± 10 kg/m3 | Normal melting temperature ([1]; DTA): 147.02 ± 0.43 °C | Molar enthalpy of transition or fusion [2]: 7.63 ± 0.645 kcal/mol | molar enthalpy [3]: 29.9 ± 1.48 kcal/mol
